Values quoted from earlier work, collected in publication PMC9175271, “Live-cell microscopy or fluorescence anisotropy with budded baculoviruses—which way to go with measuring ligand binding to M4 muscarinic receptors?” (Open Biology, 2022).

Biological target: M4 receptor
Conditions: mean of literature values, per ligand as in column ref.; ref [50], [63], [74]–[89]

SMILES: CN1[C@@H]2C[C@@H](OC(=O)[C@H](CO)c3ccccc3)C[C@H]1[C@@H]1O[C@@H]12 [scopolamine]
- pKi ± s.e.m. (radioligand): 9.28 ± 0.19
